The target of one assay is T1, HDAC6 (Homo sapiens, UniProt Q9UBN7).
T1 sequence (Q9UBN7 1-1215): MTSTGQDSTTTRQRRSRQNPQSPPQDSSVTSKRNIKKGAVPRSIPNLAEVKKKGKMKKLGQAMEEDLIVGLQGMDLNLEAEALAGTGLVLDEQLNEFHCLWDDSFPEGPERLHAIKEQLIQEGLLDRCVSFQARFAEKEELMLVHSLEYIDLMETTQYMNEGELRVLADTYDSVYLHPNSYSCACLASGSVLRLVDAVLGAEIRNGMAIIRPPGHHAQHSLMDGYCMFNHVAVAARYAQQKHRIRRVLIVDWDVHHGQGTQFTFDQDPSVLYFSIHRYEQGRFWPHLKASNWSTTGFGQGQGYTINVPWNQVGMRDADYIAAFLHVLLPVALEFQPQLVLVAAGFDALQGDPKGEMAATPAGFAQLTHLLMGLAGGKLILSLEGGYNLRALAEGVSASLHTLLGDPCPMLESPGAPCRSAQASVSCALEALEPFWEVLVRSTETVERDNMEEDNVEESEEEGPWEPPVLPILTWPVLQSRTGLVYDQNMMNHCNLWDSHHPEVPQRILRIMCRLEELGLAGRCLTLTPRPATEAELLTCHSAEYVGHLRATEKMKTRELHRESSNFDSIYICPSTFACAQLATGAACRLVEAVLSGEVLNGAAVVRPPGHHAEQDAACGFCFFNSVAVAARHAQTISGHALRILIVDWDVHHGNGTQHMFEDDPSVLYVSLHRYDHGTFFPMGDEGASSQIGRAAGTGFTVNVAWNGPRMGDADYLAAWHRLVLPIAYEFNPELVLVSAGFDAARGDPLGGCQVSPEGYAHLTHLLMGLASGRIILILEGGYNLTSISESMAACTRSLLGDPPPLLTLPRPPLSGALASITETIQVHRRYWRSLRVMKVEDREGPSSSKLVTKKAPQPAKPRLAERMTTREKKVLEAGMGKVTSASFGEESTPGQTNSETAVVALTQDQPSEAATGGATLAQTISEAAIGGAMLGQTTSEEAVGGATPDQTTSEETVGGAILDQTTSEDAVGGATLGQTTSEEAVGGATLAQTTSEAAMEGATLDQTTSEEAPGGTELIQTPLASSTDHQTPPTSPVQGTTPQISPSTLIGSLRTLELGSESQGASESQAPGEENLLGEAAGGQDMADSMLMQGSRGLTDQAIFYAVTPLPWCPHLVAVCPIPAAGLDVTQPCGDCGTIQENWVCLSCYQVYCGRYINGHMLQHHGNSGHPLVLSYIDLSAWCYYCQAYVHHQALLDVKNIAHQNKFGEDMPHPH
Put plainly: HDAC enzyme assay, recombinant HDAC6.

Assay [1] concerns the target HDAC (HeLa nuclear extracts). Kind of assay: HDAC enzyme assay, HeLa nuclear extracts. To be noted: read-out: In Vitro Enzymatic IC50 HDAC (HeLa).
Another assay concerns the target HDAC1 (Homo sapiens, UniProt Q13547). Kind of assay: HDAC enzyme assay, recombinant HDAC1.
The next assay concerns the target T2, PI3Kα (Homo sapiens, UniProt P42336).
T2 construct: purchased Invitrogen, or BPS Bioscience Inc., or SignalChem PV4788 / 40620 / P27-18H
Put plainly: Kinase enzyme assay (ADP-Glo), PI3Kα. Format: biochemical. To be noted: read-out: In Vitro Enzymatic IC50 PI3Kα. For orientation: In ADP-Glo the light output rises with the ADP produced.

A further assay deals with MV-4-11. Put plainly: cells. To be noted: Homo sapiens, MV4-11, 72 h, read-out: In Vitro Cellular IC50 MV-4-11.
For another assay, the system named is COLO 205. Put plainly: cells. To be noted: Homo sapiens, COLO 205, 72 h, read-out: In Vitro Cellular IC50 COLO 205.
For another assay, the system named is MCF7. Put plainly: Anti-proliferative assay (cellular IC50), MCF7. To be noted: Homo sapiens, MCF7, 72 h, read-out: In Vitro Cellular IC50 MCF7.
The test system of the next assay is PC-3. Kind of assay: Anti-proliferative assay (cellular IC50), PC-3. To be noted: Homo sapiens, PC-3, 72 h, read-out: In Vitro Cellular IC50 PC-3.
A further assay has as its system K-562. Kind of assay: Anti-proliferative assay (cellular IC50), K-562. To be noted: Homo sapiens, K562, 72 h, read-out: In Vitro Cellular IC50 K-562.
Another assay has as its system MOLT-4. Put plainly: Anti-proliferative assay (cellular IC50), MOLT-4. To be noted: Homo sapiens, MOLT-4, 72 h, read-out: In Vitro Cellular IC50 MOLT-4.
The subject of a further assay is HCT 116. Kind of assay: cells. To be noted: Homo sapiens, HCT-116, 72 h, read-out: In Vitro Cellular IC50 HCT 116.

Some results are limits rather than exact numbers.

By IC50 is commonly meant the midpoint of a concentration-inhibition curve.

Chain of HDAC1 (Q13547 whole entry): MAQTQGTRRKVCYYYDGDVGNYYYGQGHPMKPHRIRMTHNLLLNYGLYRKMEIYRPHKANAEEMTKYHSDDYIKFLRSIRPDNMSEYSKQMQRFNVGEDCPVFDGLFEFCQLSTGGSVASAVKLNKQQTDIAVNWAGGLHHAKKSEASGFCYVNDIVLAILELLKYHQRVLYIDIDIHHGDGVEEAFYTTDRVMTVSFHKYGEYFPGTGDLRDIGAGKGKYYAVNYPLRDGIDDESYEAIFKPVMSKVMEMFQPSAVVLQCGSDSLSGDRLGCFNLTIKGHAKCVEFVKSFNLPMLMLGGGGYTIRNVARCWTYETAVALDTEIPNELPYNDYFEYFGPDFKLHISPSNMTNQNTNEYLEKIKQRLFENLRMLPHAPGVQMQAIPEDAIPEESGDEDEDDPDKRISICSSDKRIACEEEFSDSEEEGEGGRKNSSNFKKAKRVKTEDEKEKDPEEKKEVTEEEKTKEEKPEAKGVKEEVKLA
T2 sequence (P42336 whole entry): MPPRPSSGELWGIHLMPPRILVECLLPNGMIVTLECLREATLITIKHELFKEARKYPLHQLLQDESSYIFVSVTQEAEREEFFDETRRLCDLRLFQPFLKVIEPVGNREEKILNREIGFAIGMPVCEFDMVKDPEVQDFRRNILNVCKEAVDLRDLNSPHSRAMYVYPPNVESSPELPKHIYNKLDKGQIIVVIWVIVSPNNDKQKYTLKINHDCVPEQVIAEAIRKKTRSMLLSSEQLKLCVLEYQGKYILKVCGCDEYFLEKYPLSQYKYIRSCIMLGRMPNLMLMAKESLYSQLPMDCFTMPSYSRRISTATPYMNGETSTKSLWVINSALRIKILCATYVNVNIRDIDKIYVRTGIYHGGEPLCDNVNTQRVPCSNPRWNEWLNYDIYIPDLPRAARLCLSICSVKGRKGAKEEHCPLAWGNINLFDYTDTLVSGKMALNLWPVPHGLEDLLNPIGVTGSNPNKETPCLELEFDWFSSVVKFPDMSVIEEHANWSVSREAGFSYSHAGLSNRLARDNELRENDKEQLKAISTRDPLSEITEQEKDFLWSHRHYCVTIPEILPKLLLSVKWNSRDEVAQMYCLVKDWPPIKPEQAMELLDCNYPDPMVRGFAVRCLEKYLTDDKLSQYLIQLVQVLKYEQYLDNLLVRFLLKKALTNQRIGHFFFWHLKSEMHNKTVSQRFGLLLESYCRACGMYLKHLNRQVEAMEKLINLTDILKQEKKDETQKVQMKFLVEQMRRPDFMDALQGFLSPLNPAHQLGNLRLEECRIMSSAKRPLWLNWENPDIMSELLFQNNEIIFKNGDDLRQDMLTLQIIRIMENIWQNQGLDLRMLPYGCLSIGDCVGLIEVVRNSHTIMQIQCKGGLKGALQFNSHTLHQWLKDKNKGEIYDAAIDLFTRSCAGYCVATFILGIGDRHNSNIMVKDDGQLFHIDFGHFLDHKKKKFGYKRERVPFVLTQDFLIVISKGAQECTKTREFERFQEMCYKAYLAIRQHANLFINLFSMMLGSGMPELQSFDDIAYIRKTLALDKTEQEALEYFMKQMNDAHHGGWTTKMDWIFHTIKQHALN
T2 sequence (P27986 whole entry partner): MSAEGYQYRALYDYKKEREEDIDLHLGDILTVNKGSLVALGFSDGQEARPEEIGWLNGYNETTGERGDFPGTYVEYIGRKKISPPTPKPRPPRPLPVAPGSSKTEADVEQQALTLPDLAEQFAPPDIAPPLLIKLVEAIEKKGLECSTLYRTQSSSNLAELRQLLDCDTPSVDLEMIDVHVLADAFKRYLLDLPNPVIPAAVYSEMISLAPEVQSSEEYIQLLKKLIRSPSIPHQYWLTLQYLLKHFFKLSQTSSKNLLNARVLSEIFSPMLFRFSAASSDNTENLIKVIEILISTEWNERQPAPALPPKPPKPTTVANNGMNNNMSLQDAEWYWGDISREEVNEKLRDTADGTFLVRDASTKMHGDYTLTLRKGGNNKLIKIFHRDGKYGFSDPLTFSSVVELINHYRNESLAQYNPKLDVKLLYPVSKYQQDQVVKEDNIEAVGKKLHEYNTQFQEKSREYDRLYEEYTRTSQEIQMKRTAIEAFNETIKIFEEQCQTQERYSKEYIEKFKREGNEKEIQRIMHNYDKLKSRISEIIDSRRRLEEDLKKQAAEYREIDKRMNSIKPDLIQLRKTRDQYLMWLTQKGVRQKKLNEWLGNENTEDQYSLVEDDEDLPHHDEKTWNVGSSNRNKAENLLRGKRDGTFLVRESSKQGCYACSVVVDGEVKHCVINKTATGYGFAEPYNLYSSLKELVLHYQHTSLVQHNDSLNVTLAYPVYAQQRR
Protocol for COLO 205: (§1) Cells were cultivated at 37° C., 5% CO2 in media containing 10% FBS and 2 mM glutamine Cells were routinely monitored with MycoAlert™ PLUS Mycoplasma Detection Kit (Lonza Walkersville, Inc.) to make sure they were mycoplasma free. Antibiotics (100 U/mL of penicillin and 100 μg/mL of streptomycin) were only added to the media used for compound dilution and cells in 96-well assay plates.
(§2) For a typical screening experiment, cells (100 μL/well) are inoculated into 96 well microtiter plates at plating densities ranging from 2,000 to 30,000 cells/well depending on the doubling time of individual cell lines and assay linearity. […] Suspension cells are treated with test compounds immediately after cell inoculation.
(§3) Test compounds are serially diluted (3-fold or 4-fold, 8-concentration) using the same media and added to the plates (15 to 25 μL/well). After 72 h of cultivation, the plates are assayed for cell cytotoxicity/viability by using the following two methods.
(§4) Cells in plates are fixed with cold trichloroacetic acid (TCA) (50% w/v in DI water, 1/4 volume of the medium in each well), and incubated at 4° C. for 1 h (adherent cells) or 2 h (suspension cells). The plates are washed 5 times (tap water×3, DI water×2) and air-dried. SRB solution 0.4% (w/v) in 1% acetic acid is added to each well (60 μL/well) and the plates are incubated at room temperature for 30 min, then washed with 1% acetic acid solution 4 times, and air-dried.
(§5) The plates are added CellTiter-Glo® Reagent (95 μL/well) and read the luminescence on a BioTek H4 reader per manufacture's protocol.
(§6) The raw data are processed using BioTek's Software Gen5 (v2.03.01) to generate inhibitory IC50 values.
Protocol for HCT 116: as §1, §2, §3, §4, §5, §6
Protocol for K-562: as §1, §2, §3, §4, §5, §6
Protocol for MCF7: as §1, §2, §3, §4, §5, §6
Protocol for MOLT-4: as §1, §2, §3, §4, §5, §6

For the compound `Nc1ncc(-c2nc(N3CCOCC3)nc3c2ncn3CCCCCCC(=O)NO)cn1` [compound 3], the 50% inhibitory concentration (IC50) on HDAC6 is 10 to 100 nM.
With `CC(C)n1cnc2c(-c3cccc(COCCCCC(=O)NO)c3)nc(N3CCOCC3)nc21` [compound 23, N-hydroxy-5-((3-(9-isopropyl-2-morpholino-9H-purin-6-yl)benzyl)oxy)pentanamide], the concentration for half-maximal inhibition (IC50) (in [1]; at HDAC1) was 10 to 100 nM in each case.
`CC(C)n1cnc2c(-c3cccc(OCC(=O)NO)c3)nc(N3CCOCC3)nc21` [compound 24, N-hydroxy-2-(3-(9-isopropyl-2-morpholino-9H-purin-6-yl)phenoxy)acetamide]: the IC50 on HDAC1 and on PI3Kα was 1000 to 10000 nM each time.
As to `CCN(CC)c1nc2c(-c3cnc(N)nc3)nc(N3CCOCC3)nc2n1CCCC(=O)NO` [compound 28, 4-(6-(2-aminopyrimidin-5-yl)-8-(diethylamino)-2-morpholino-9H-purin-9-yl)-N-hydroxybutanamide], the half-inhibitory concentration (IC50) (in assay [1]; on HDAC1) was 1000 to 10000 nM each time.
Turning to `CCN(CC)c1nc(-c2cccc(OCCCC(=O)NO)c2)c2ncn(C(C)C)c2n1` [compound 30, 4-(3-(2-(diethylamino)-9-isopropyl-9H-purin-6-yl)phenoxy)-N-hydroxybutanamide], the IC50 in the assay with MV-4-11 is under 500 nM; in the assay with COLO 205, 2000 to 10000 nM; in assay [1], 100 to 1000 nM; with MCF7, 2000 to 10000 nM; with PC-3, under 500 nM; on HDAC1, 1000 to 10000 nM. The IC50 with K-562 was in the range of 2000 to 10000 nM.
Consider `Nc1ncc(-c2nc(N3CCOCC3)c3ncn(CCCCCCC(=O)NO)c3n2)cn1` [compound 41, 7-(2-(2-aminopyrimidin-5-yl)-6-morpholino-9H-purin-9-yl)-N-hydroxyheptanamide], for which the concentration for half-maximal inhibition (IC50) on HDAC6 was under 10 nM.
For the compound `CC(=O)Nc1cccc(-c2nc(N3CCOCC3)c3ncn(CCCCCCC(=O)NO)c3n2)c1` [compound 48, 7-(2-(3-acetamidophenyl)-6-morpholino-9H-purin-9-yl)-N-hydroxyheptanamide], on HDAC6, the half-maximal inhibitory concentration (IC50) is under 10 nM.
For `NC(=O)c1cccc(-c2nc(N3CCOCC3)c3ncn(CCCCCCC(=O)NO)c3n2)c1` [compound 49, 3-(9-(7-(hydroxyamino)-7-oxoheptyl)-6-morpholino-9H-purin-2-yl)benzamide], the IC50 at HDAC6 is under 10 nM.
For the compound `O=C(CCCCCCn1cnc2c(N3CCOCC3)nc(-c3cn[nH]c3)nc21)NO` [compound 51, N-hydroxy-7-(6-morpholino-2-(1H-pyrazol-4-yl)-9H-purin-9-yl)heptanamide], the IC50 on HDAC6 is under 10 nM.
In the case of `COc1ccc(-c2nc(N3CCOCC3)c3ncn(CCCCCCC(=O)NO)c3n2)cn1` [compound 52, N-hydroxy-7-(2-(6-methoxypyridin-3-yl)-6-morpholino-9H-purin-9-yl)heptanamide], the half-inhibitory concentration (IC50) at HDAC6 was 10 to 100 nM.
In the case of `COc1ncc(-c2nc(N3CCOCC3)c3ncn(CCCCCCC(=O)NO)c3n2)cn1` [compound 55, N-hydroxy-7-(2-(2-methoxypyrimidin-5-yl)-6-morpholino-9H-purin-9-yl)heptanamide], the IC50 on HDAC6 was 10 to 100 nM.
On the same count and under the same terms, as for `O=C(CCCCCCn1ccc2c(N3CCOCC3)nc(-c3cccc(O)c3)nc21)NO` [compound 79, N-hydroxy-7-(2-(3-hydroxyphenyl)-4-morpholino-7H-pyrrolo[2,3-d]pyrimidin-7-yl)heptanamide], the figure is under 10 nM.
In the case of `CC(C)n1c(NCc2ccc(C(=O)NO)cc2)nc2c(-c3cnc(N)nc3)nc(N3CCOCC3)nc21` [compound 80, 4-(((6-(2-aminopyrimidin-5-yl)-9-isopropyl-2-morpholino-9H-purin-8-yl)amino)methyl)-N-hydroxybenzamide], the IC50 on HDAC1 fell in the range of 100 to 1000 nM.
On to `CC(C)n1cnc2c(N3CCOCC3)nc(-c3cccc(OCCCC(=O)NO)c3)nc21` [compound 83, N-hydroxy-4-(3-(9-isopropyl-6-morpholino-9H-purin-2-yl)phenoxy)butanamide], for which the concentration for half-maximal inhibition (IC50) lay in the range of 2000 to 10000 nM in the assay on COLO 205; 500 to 2000 nM in the assay on MOLT-4; 100 to 1000 nM in [1]; 100 to 1000 nM on HDAC1; 2000 to 10000 nM in the assay on K-562.
For the compound `CC(C)n1cnc2c(N3CCOCC3)nc(-c3cccc(OCCCCCCC(=O)NO)c3)nc21` [compound 84, N-hydroxy-7-(3-(9-isopropyl-6-morpholino-9H-purin-2-yl)phenoxy)heptanamide], the half-inhibitory concentration (IC50) is over 10000 nM in the assay with COLO 205; 2000 to 10000 nM with MOLT-4; 10 to 100 nM in assay [1]; 100 to 1000 nM on HDAC1; 2000 to 10000 nM in the assay with K-562.
For `CC(C)n1cnc2c(N3CCOCC3)nc(-c3cccc(NC(=O)CCCCCCC(=O)NO)c3)nc21` [compound 85, N^1-hydroxy-N^8-(3-(9-isopropyl-6-morpholino-9H-purin-2-yl)phenyl)octanediamide], the IC50 is 500 to 2000 nM with MV-4-11; 500 to 2000 nM in the assay on COLO 205; under 500 nM in the assay on MOLT-4; under 10 nM in [1]; 500 to 2000 nM with MCF7; 2000 to 10000 nM in the assay on PC-3. In addition, the values for the IC50 at HDAC1 and in the assay with K-562 were 10 to 100 nM and 500 to 2000 nM, respectively.
On to `CC(C)n1c(N2CCC(C(=O)NO)CC2)nc2c(N3CCOCC3)nc(-c3cnc(N)nc3)nc21` [compound 86, 1-(2-(2-aminopyrimidin-5-yl)-9-isopropyl-6-morpholino-9H-purin-8-yl)-N-hydroxypiperidine-4-carboxamide], for which the IC50 lay within 2000 to 10000 nM in the assay with COLO 205; 500 to 2000 nM in the assay with MOLT-4; 1000 to 10000 nM in [1]; 1000 to 10000 nM at HDAC1; 10 to 100 nM on PI3Kα; 2000 to 10000 nM in the assay with K-562.
Take `CCn1c(CN2CCC(C(=O)NO)CC2)nc2c(N3CCOCC3)nc(-c3cnc(N)nc3)nc21` [compound 88, 1-((2-(2-aminopyrimidin-5-yl)-9-ethyl-6-morpholino-9H-purin-8-yl)methyl)-N-hydroxypiperidine-4-carboxamide]: the IC50 is over 10000 nM with COLO 205, 2000 to 10000 nM in the assay with MOLT-4, 1000 to 10000 nM at HDAC1 and over 10000 nM in the assay with K-562.
Regarding `O=C(CCCCCCn1cnc2c(N3CCC(CO)CC3)nc(-c3cccc(CO)c3)nc21)NO` [compound 103, N-hydroxy-7-(2-(3-(hydroxymethyl)phenyl)-6-(4-(hydroxymethyl)piperidin-1-yl)-9H-purin-9-yl)heptanamide], the IC50 is under 500 nM in the assay on MV-4-11, under 500 nM in the assay on MOLT-4, under 10 nM in assay [1] and 500 to 2000 nM in the assay with MCF7.
On to `O=C(CCCCCCn1cnc2c(N3CCC(O)CC3)nc(-c3cccc(CO)c3)nc21)NO` [compound 105, N-hydroxy-7-(2-(3-(hydroxymethyl)phenyl)-6-(4-hydroxypiperidin-l-yl)-9H-purin-9-yl)heptanamide], for which the half-maximal inhibitory concentration (IC50) with MV-4-11 was under 500 nM; with HCT 116, 500 to 2000 nM; in the assay with MOLT-4, under 500 nM; in [1], under 10 nM; with MCF7, 500 to 2000 nM.

(Values after patent US9957270B2, “Fused pyrimidine-based hydroxamate derivatives” (Agency for Science, Technology and Research, priority 2014, dated 2018).)
